Earlier results in patent US10894006B2, “Nanoparticles for the encapsulation of compounds, preparation thereof and use of same” (CENTRO NACIONAL DE TECNOLOGÍA Y SEGURIDAD ALIMENTARIA, …, priority 2010, dated 2021).
Read-outs that look alike come from different tables or passages of the source.

- solubility (in slightly alkaline aqueous solution): freely soluble
- solubility (in water): slightly soluble
SMILES: Nc1nc2ncc(CNc3ccc(C(=O)N[C@@H](CCC(=O)O)C(=O)O)cc3)nc2c(=O)[nH]1 [Non-encap FA, folic acid]
